Reference: PubChem BioAssay (NCI)
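Tested at 5 concentrations; 48 h exposure; 96-well plates; endpoints linearly interpolated, else capped at highest concentration. GI50 marks 50% less growth. TGI marks complete inhibition of growth.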

Legend:
Assay in all cases: NCI-60 cell line screen, 48 h
HCT-116 colon = tested on: HCT-116 colon
RPMI-8226 leukemia = tested on: RPMI-8226 leukemia
DU-145 prostate = tested on: DU-145 prostate
SK-MEL-28 melanoma = tested on: SK-MEL-28 melanoma
NCI-H522 lung = tested on: NCI-H522 lung
SF-268 CNS = tested on: SF-268 CNS
SK-MEL-2 melanoma = tested on: SK-MEL-2 melanoma
PC-3 prostate = tested on: PC-3 prostate
LOX IMVI melanoma = tested on: LOX IMVI melanoma
KM12 colon = tested on: KM12 colon
IGROV1 ovarian = tested on: IGROV1 ovarian
HCT-15 colon = tested on: HCT-15 colon
OVCAR-3 ovarian = tested on: OVCAR-3 ovarian
COLO 205 colon = tested on: COLO 205 colon
NCI/ADR-RES ovarian = tested on: NCI/ADR-RES ovarian
T-47D breast = tested on: T-47D breast
NCI-H460 lung = tested on: NCI-H460 lung
NCI-H23 lung = tested on: NCI-H23 lung
SW-620 colon = tested on: SW-620 colon
M14 melanoma = tested on: M14 melanoma
OVCAR-5 ovarian = tested on: OVCAR-5 ovarian
RXF 393 renal = tested on: RXF 393 renal
BT-549 breast = tested on: BT-549 breast
OVCAR-8 ovarian = tested on: OVCAR-8 ovarian
MCF7 breast = tested on: MCF7 breast
A498 renal = tested on: A498 renal
CCRF-CEM leukemia = tested on: CCRF-CEM leukemia
786-0 renal = tested on: 786-0 renal
SN12C renal = tested on: SN12C renal
HOP-62 NSCLC = tested on: HOP-62 NSCLC
UACC-257 melanoma = tested on: UACC-257 melanoma
MALME-3M melanoma = tested on: MALME-3M melanoma
SNB-19 CNS = tested on: SNB-19 CNS
ACHN renal = tested on: ACHN renal
MDA-MB-468 breast = tested on: MDA-MB-468 breast
MOLT-4 leukemia = tested on: MOLT-4 leukemia
SNB-75 CNS = tested on: SNB-75 CNS
SK-OV-3 ovarian = tested on: SK-OV-3 ovarian
U251 CNS = tested on: U251 CNS
SK-MEL-5 melanoma = tested on: SK-MEL-5 melanoma
EKVX NSCLC = tested on: EKVX NSCLC
A549 NSCLC = tested on: A549 NSCLC
SF-539 CNS = tested on: SF-539 CNS
HOP-92 NSCLC = tested on: HOP-92 NSCLC
NCI-H226 lung = tested on: NCI-H226 lung
TK-10 renal = tested on: TK-10 renal
SF-295 CNS = tested on: SF-295 CNS
CAKI-1 renal = tested on: CAKI-1 renal
UACC-62 melanoma = tested on: UACC-62 melanoma
HL-60(TB) leukemia = tested on: HL-60(TB) leukemia
HS 578T breast = tested on: HS 578T breast
HCC-2998 colon = tested on: HCC-2998 colon
SR leukemia = tested on: SR leukemia
HT29 colon = tested on: HT29 colon
MDA-MB-435 = tested on: MDA-MB-435
MDA-MB-231 breast = tested on: MDA-MB-231 breast
UO-31 renal = tested on: UO-31 renal

Cc1ccc(S(=O)(=O)c2nc(-c3ccccc3)oc2S(=O)(=O)CC(=O)N2CCCC2)cc1
GI50 (HCT-116 colon): 1.52 µM | TGI (HCT-116 colon): 3.34 µM | GI50 (RPMI-8226 leukemia): 2.68 µM | TGI (RPMI-8226 leukemia): > 100 µM | GI50 (DU-145 prostate): 1.63 µM | TGI (DU-145 prostate): 3.37 µM | GI50 (SK-MEL-28 melanoma): 1.82 µM | TGI (SK-MEL-28 melanoma): 3.54 µM | GI50 (NCI-H522 lung): 1.06 µM | TGI (NCI-H522 lung): 2.49 µM | GI50 (SF-268 CNS): 12.2 µM | TGI (SF-268 CNS): 33.2 µM | GI50 (SK-MEL-2 melanoma): 13.1 µM | TGI (SK-MEL-2 melanoma): 26.2 µM | GI50 (PC-3 prostate): 11.8 µM | TGI (PC-3 prostate): 30.7 µM | GI50 (LOX IMVI melanoma): 1.45 µM | TGI (LOX IMVI melanoma): 2.82 µM | GI50 (KM12 colon): 14.9 µM | TGI (KM12 colon): 32 µM | GI50 (IGROV1 ovarian): 6.54 µM | TGI (IGROV1 ovarian): 20.8 µM | GI50 (HCT-15 colon): 1.4 µM | TGI (HCT-15 colon): 2.92 µM | GI50 (OVCAR-3 ovarian): 1.27 µM | TGI (OVCAR-3 ovarian): 2.66 µM | GI50 (COLO 205 colon): 1.89 µM | TGI (COLO 205 colon): 4.38 µM | GI50 (NCI/ADR-RES ovarian): 11.4 µM | TGI (NCI/ADR-RES ovarian): 65 µM | GI50 (T-47D breast): 1.78 µM | TGI (T-47D breast): 4.94 µM | GI50 (NCI-H460 lung): 7 µM | TGI (NCI-H460 lung): 22.5 µM | GI50 (NCI-H23 lung): 8.06 µM | TGI (NCI-H23 lung): 23.6 µM | GI50 (SW-620 colon): 0.801 µM | TGI (SW-620 colon): 2.24 µM | GI50 (M14 melanoma): 1.77 µM | TGI (M14 melanoma): 4.15 µM | GI50 (OVCAR-5 ovarian): 11 µM | TGI (OVCAR-5 ovarian): 23.4 µM | GI50 (RXF 393 renal): 1.08 µM | TGI (RXF 393 renal): 2.41 µM | GI50 (BT-549 breast): 3.89 µM | TGI (BT-549 breast): 11.8 µM | GI50 (OVCAR-8 ovarian): 7.2 µM | TGI (OVCAR-8 ovarian): 25.1 µM | GI50 (MCF7 breast): 1.17 µM | TGI (MCF7 breast): 2.9 µM | GI50 (A498 renal): 11.9 µM | TGI (A498 renal): 24.3 µM | GI50 (CCRF-CEM leukemia): 0.529 µM | TGI (CCRF-CEM leukemia): 2.95 µM | GI50 (786-0 renal): 1.45 µM | TGI (786-0 renal): 2.93 µM | GI50 (SN12C renal): 6.68 µM | TGI (SN12C renal): 19.6 µM | GI50 (HOP-62 NSCLC): 14.4 µM | TGI (HOP-62 NSCLC): 31 µM | GI50 (UACC-257 melanoma): 1.73 µM | TGI (UACC-257 melanoma): 3.73 µM | GI50 (MALME-3M melanoma): 1.55 µM | TGI (MALME-3M melanoma): 2.95 µM | GI50 (SNB-19 CNS): 14.5 µM | TGI (SNB-19 CNS): 27.6 µM | GI50 (ACHN renal): 1.36 µM | TGI (ACHN renal): 2.65 µM | GI50 (MDA-MB-468 breast): 0.587 µM | TGI (MDA-MB-468 breast): 1.97 µM | GI50 (MOLT-4 leukemia): 1.73 µM | TGI (MOLT-4 leukemia): 5.22 µM | GI50 (SNB-75 CNS): 3.89 µM | TGI (SNB-75 CNS): 17.4 µM | GI50 (SK-OV-3 ovarian): 15.6 µM | TGI (SK-OV-3 ovarian): 30.5 µM | GI50 (U251 CNS): 15.5 µM | TGI (U251 CNS): 29.7 µM | GI50 (SK-MEL-5 melanoma): 12.5 µM | TGI (SK-MEL-5 melanoma): 25.2 µM | GI50 (EKVX NSCLC): 2.44 µM | TGI (EKVX NSCLC): 7.76 µM | GI50 (A549 NSCLC): 13.1 µM | TGI (A549 NSCLC): 29.1 µM | GI50 (SF-539 CNS): 1.54 µM | TGI (SF-539 CNS): 2.91 µM | GI50 (HOP-92 NSCLC): 2.71 µM | TGI (HOP-92 NSCLC): 8.32 µM | GI50 (NCI-H226 lung): 13.3 µM | TGI (NCI-H226 lung): 34.7 µM | GI50 (TK-10 renal): 1.7 µM | TGI (TK-10 renal): 3.15 µM | GI50 (SF-295 CNS): 12.2 µM | TGI (SF-295 CNS): 25 µM | GI50 (CAKI-1 renal): 1.21 µM | TGI (CAKI-1 renal): 2.5 µM | GI50 (UACC-62 melanoma): 4.53 µM | TGI (UACC-62 melanoma): 16.5 µM | GI50 (HL-60(TB) leukemia): 0.978 µM | TGI (HL-60(TB) leukemia): 3.48 µM | GI50 (HS 578T breast): 3.68 µM | TGI (HS 578T breast): 28.2 µM | GI50 (HCC-2998 colon): 11.2 µM | TGI (HCC-2998 colon): 24.1 µM | GI50 (SR leukemia): 1.49 µM | TGI (SR leukemia): 6.6 µM | GI50 (HT29 colon): 1.54 µM | TGI (HT29 colon): 4.05 µM | GI50 (MDA-MB-435): 3.08 µM | TGI (MDA-MB-435): 13.8 µM | GI50 (MDA-MB-231 breast): 1.63 µM | TGI (MDA-MB-231 breast): 3.11 µM | GI50 (UO-31 renal): 1.36 µM | TGI (UO-31 renal): 2.66 µM
